According to the NIST ThermoML archive (doi:10.1021/acs.jced.9b00074):
± gives the expanded uncertainty stated by the source.

Conditions: 100 kPa, Liquid; for viscosity: Falling or rolling sphere viscometry; for mass density: Vibrating tube method

viscosity (293.15 K) [mPa·s] | mass density (293.15 K) [kg/m3] | viscosity (298.15 K) [mPa·s] | mass density (298.15 K) [kg/m3] | viscosity (303.15 K) [mPa·s] | mass density (303.15 K) [kg/m3] | viscosity (308.15 K) [mPa·s] | mass density (308.15 K) [kg/m3] | viscosity (313.15 K) [mPa·s] | mass density (313.15 K) [kg/m3] | viscosity (318.15 K) [mPa·s] | mass density (318.15 K) [kg/m3] | viscosity (323.15 K) [mPa·s] | mass density (323.15 K) [kg/m3] | viscosity (328.15 K) [mPa·s] | mass density (328.15 K) [kg/m3] | viscosity (333.15 K) [mPa·s] | mass density (333.15 K) [kg/m3] | SMILES
3.75 ± 0.08 | 901.57 ± 0.55 | 3.34 ± 0.071 | 898 ± 0.54 | 2.997 ± 0.064 | 894.43 ± 0.54 | 2.702 ± 0.057 | 890.86 ± 0.54 | 2.45 ± 0.052 | 887.29 ± 0.54 | 2.231 ± 0.047 | 883.71 ± 0.54 | 2.039 ± 0.043 | 880.13 ± 0.53 | 1.871 ± 0.04 | 876.55 ± 0.53 | 1.722 ± 0.037 | 872.96 ± 0.53 | CC12CC3CC(C1)CC(C)(C3)C2 [1,3-dimethyladamantane]
11.72 ± 0.25 | 947.04 ± 0.57 | 9.6 ± 0.2 | 943.08 ± 0.57 | 7.891 ± 0.17 | 939.08 ± 0.57 | 6.564 ± 0.14 | 935.03 ± 0.56 | 5.509 ± 0.12 | 930.92 ± 0.56 | 4.657 ± 0.099 | 926.76 ± 0.56 | 3.97 ± 0.084 | 922.53 ± 0.56 | 3.409 ± 0.072 | 918.24 ± 0.55 | 2.945 ± 0.063 | 913.89 ± 0.55 | OC1CCCC1 [cyclopentanol]
3.017 ± 0.068 | 935.88 ± 0.7 | 2.731 ± 0.061 | 932 ± 0.69 | 2.488 ± 0.056 | 928.08 ± 0.69 | 2.273 ± 0.051 | 924.16 ± 0.69 | 2.087 ± 0.047 | 920.24 ± 0.68 | 1.922 ± 0.043 | 916.31 ± 0.68 | 1.776 ± 0.04 | 912.38 ± 0.68 | 1.646 ± 0.037 | 908.44 ± 0.68 | 1.53 ± 0.034 | 904.5 ± 0.67 | C1C[C@@H]2[C@H]3CC[C@H](C3)[C@@H]2C1 [exo-tetrahydrodicyclopentadiene]
